These results are taken from patent US12091411B2, “IRAK degraders and uses thereof” (Kymera Therapeutics, Inc., priority 2022, dated 2024).

Read-outs that look alike come from different tables or passages of the source.

The test has as its target T1, IRAK4 (Homo sapiens, UniProt Q9NWZ3).
T1 construct: Degradation of IRAK4 in OCI-LY10 was quantitatively measured using Meso Scale Discovery technology; endogenous in cells; host or cells: OCI-LY10
T1 sequence (Q9NWZ3 1-460): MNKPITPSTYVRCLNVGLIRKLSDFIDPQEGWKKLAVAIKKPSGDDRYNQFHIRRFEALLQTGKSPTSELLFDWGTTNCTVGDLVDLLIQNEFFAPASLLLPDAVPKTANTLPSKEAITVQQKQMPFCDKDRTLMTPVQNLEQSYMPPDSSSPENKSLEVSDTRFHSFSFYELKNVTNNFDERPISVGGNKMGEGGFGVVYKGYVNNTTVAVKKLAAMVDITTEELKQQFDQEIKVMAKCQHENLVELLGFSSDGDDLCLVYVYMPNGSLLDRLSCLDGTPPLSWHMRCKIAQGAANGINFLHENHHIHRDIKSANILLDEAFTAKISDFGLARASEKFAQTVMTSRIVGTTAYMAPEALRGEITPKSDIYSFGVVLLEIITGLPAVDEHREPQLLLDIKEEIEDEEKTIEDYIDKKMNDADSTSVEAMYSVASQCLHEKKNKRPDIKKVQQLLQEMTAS
Put plainly: IRAK4 MSD Degradation in OCI-LY10. The class given is cell-based. As to conditions: OCI-LY10 cells, MSD. The gist of the method: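 OCI-LY10 cells exposed to 8-point 1:3 compound series (top 1 to 10 μM) for 4 to 24 h at 37 °C, 5% CO2. Lysate IRAK4 quantified by MSD sandwich immunoassay. DC50 from three-parameter logistic fit, binned A (<0.01 μM) to D (>0.2 μM or not tested).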

[1] abbreviates: 4 hrs incubation, read-out: IRAK4 degradation in OCI-LY10 at 4 hrs: DC50.
The mark [2] stands for this setting: 24 hrs incubation, read-out: IRAK4 degradation in OCI-LY10 at 24 hrs: DC50.

Broadly, the DC50 is the concentration giving 50% degradation. For `O=C1CCN(c2cncc3c(N4CCN(C5CCN(C[C@H]6CC[C@H](n7cc(NC(=O)c8cnn9ccc(N%10C[C@H]%11C[C@@H]%10CO%11)nc89)c(C(F)F)n7)CC6)CC5)CC4)cccc23)C(=O)N1` [I-76], the DC50 under setting [1] was less than 10 nM and the DC50 under setting [2] was more than 200 nM.
Take `O=C1CCN(c2cncc3cc(N4CCN(C5CCN(C[C@H]6CC[C@H](n7cc(NC(=O)c8cnn9ccc(N%10C[C@H]%11C[C@@H]%10CO%11)nc89)c(C(F)F)n7)CC6)CC5)CC4)ccc23)C(=O)N1` [I-77]: the 50% degradation concentration (DC50) runs as follows: under setting [1], less than 10 nM; under setting [2], more than 200 nM.
Take `Cn1c(=O)n(C2CCC(=O)NC2=O)c2cccc([C@H]3C[C@@H](CN4CCN(C[C@H]5CC[C@H](n6cc(NC(=O)c7cnn8ccc(N9C[C@H]%10CC9CO%10)nc78)c(C(F)F)n6)CC5)CC4)C3)c21` (stereo partly shown) [I-78]: the DC50 runs as follows: under setting [1], less than 10 nM; under setting [2], more than 200 nM.
Consider `Cn1c(=O)n(C2CCC(=O)NC2=O)c2cccc([C@H]3C[C@H](CN4CCN(C[C@H]5CC[C@H](n6cc(NC(=O)c7cnn8ccc(N9C[C@H]%10C[C@@H]9CO%10)nc78)c(C(F)F)n6)CC5)CC4)C3)c21` (stereo partly shown) [I-79], for which the DC50 reads like this: under setting [1], less than 10 nM; under setting [2], more than 200 nM.
In the case of `C[C@H]1CN(C[C@H]2CC[C@H](n3cc(NC(=O)c4cnn5ccc(N6C[C@@H]7C[C@H]6CO7)nc45)c(C(F)F)n3)CC2)CC[C@@H]1OCC#Cc1cccc2c1n(C)c(=O)n2[C@@H]1CCC(=O)NC1=O` [I-80], the DC50 by setting is: under setting [1], 10 to 100 nM; under setting [2], more than 200 nM.
On to `Cn1c(=O)n(C2CCC(=O)NC2=O)c2cccc([C@H]3C[C@@H](OC4CCN(C[C@H]5CC[C@H](n6cc(NC(=O)c7cnn8ccc(N9C[C@H]%10C[C@@H]9CO%10)nc78)c(C(F)F)n6)CC5)CC4)C3)c21` (stereo partly shown) [I-81], for which the 50% degradation concentration (DC50) under setting [1] is less than 10 nM and the 50% degradation concentration (DC50) under setting [2] was more than 200 nM.
As to `Cn1c(=O)n(C2CCC(=O)NC2=O)c2cccc([C@H]3C[C@H](OC4CCN(C[C@H]5CC[C@H](n6cc(NC(=O)c7cnn8ccc(N9C[C@H]%10C[C@@H]9CO%10)nc78)c(C(F)F)n6)CC5)CC4)C3)c21` (stereo partly shown) [I-82], the DC50 was more than 200 nM under setting [1] and more than 200 nM under setting [2].
In the case of `COc1cc2nn([C@H]3CC[C@H](CN4CCC5(CC4)CCN(c4cccc6c4n(C)c(=O)n6C4CCC(=O)NC4=O)CC5)CC3)cc2cc1NC(=O)c1cncc(F)c1` (stereo partly shown) [I-83], the DC50 under setting [1] is more than 200 nM and the 50% degradation concentration (DC50) under setting [2] was more than 200 nM.
As for `COc1cc2nn([C@H]3CC[C@H](CN4CCC5(CC4)CCN(c4c(C)ccc6c4n(C)c(=O)n6C4CCC(=O)NC4=O)CC5)CC3)cc2cc1NC(=O)c1cncc(C#N)c1` (stereo partly shown) [I-84], the 50% degradation concentration (DC50) reads like this: under setting [1], more than 200 nM; under setting [2], more than 200 nM.
With `COc1cc2nn([C@H]3CC[C@H](CN4CCC5(CC4)CCN(c4cccc(N6CCC(=O)NC6=O)c4)CC5)CC3)cc2cc1NC(=O)c1cncc(C#N)c1` [I-85], the DC50 was more than 200 nM under setting [1] and more than 200 nM under setting [2].
`COc1cncc(C(=O)Nc2cc3cn([C@H]4CC[C@H](CN5CCC6(CC5)CCN(c5cccc7c5n(C)c(=O)n7C5CCC(=O)NC5=O)CC6)CC4)nc3cc2OC)c1` (stereo partly shown) [I-86]: the DC50 was more than 200 nM under setting [1] and more than 200 nM under setting [2].
With `COc1cc2nn([C@H]3CC[C@H](CN4CCC5(CC4)CCN(c4c(OC)ccc6c4n(C)c(=O)n6C4CCC(=O)NC4=O)CC5)CC3)cc2cc1NC(=O)c1cncc(C#N)c1` (stereo partly shown) [I-87], the DC50 by setting is: under setting [1], less than 10 nM; under setting [2], less than 10 nM.
Regarding `COc1cc2nn([C@H]3CC[C@H](CN4CCC5(CC4)CCN(c4ccc(C6CCC(=O)NC6=O)cc4)CC5)CC3)cc2cc1NC(=O)c1cncc(C#N)c1` (stereo partly shown) [I-88], the DC50 reads like this: under setting [1], 10 to 100 nM; under setting [2], more than 200 nM.
For `COc1cc2nn([C@H]3CC[C@H](CN4CCC5(CC4)CCN(c4cccc6c4n(C)c(=O)n6C4CCC(=O)NC4=O)CC5)CC3)cc2cc1NC(=O)c1cncc(C)c1` (stereo partly shown) [I-89], the DC50 by setting is: under setting [1], more than 200 nM; under setting [2], more than 200 nM.
In the case of `COc1cc2nn([C@H]3CC[C@H](CN4CCC5(CC4)CCN(c4cccc6c(N7CCC(=O)NC7=O)cncc46)CC5)CC3)cc2cc1NC(=O)c1cncc(C#N)c1` [I-90], the 50% degradation concentration (DC50) was more than 200 nM under setting [1] and more than 200 nM under setting [2].
In the case of `COc1cc2nn([C@H]3CC[C@H](CN4CCC5(CC4)CCN(c4cccc(C6CCC(=O)NC6=O)c4)CC5)CC3)cc2cc1NC(=O)c1cncc(C#N)c1` (stereo partly shown) [I-91], the 50% degradation concentration (DC50) by setting is: under setting [1], more than 200 nM; under setting [2], 100 to 200 nM.
In the case of `COc1cc2nn([C@H]3CC[C@H](CN4CCC5(CC4)CCN(c4cccc6c4n(C)c(=O)n6C4CCC(=O)NC4=O)CC5)CC3)cc2cc1NC(=O)c1cncc(C(F)(F)F)c1` (stereo partly shown) [I-92], the DC50 is more than 200 nM under setting [1] and more than 200 nM under setting [2].
On to `COc1cc2nn([C@H]3CC[C@H](CN4CCC5(CC4)CCN(c4cccc6c(N7CCC(=O)NC7=O)cccc46)CC5)CC3)cc2cc1NC(=O)c1cncc(C#N)c1` [I-93], for which the 50% degradation concentration (DC50) runs as follows: under setting [1], 10 to 100 nM; under setting [2], 10 to 100 nM.
Take `COc1cc2nc([C@H]3CC[C@H](CN4CCC5(CC4)CCN(c4cccc6c4n(C)c(=O)n6C4CCC(=O)NC4=O)CC5)CC3)sc2cc1NC(=O)c1cncc(C#N)c1` (stereo partly shown) [I-94]: the half-maximal degradation concentration (DC50) is more than 200 nM under setting [1] and more than 200 nM under setting [2].
Turning to `COc1cc2nn([C@H]3CC[C@H](CN4CCC5(CC4)CCN(c4c(F)ccc6c4n(C)c(=O)n6C4CCC(=O)NC4=O)CC5)CC3)cc2cc1NC(=O)c1cncc(C#N)c1` (stereo partly shown) [I-95], the half-maximal degradation concentration (DC50) by setting is: under setting [1], more than 200 nM; under setting [2], more than 200 nM.
Consider `COc1cc2nn([C@H]3CC[C@H](CN4CCC5(CC4)CCN(c4ccc(N6CCC(=O)NC6=O)cc4)CC5)CC3)cc2cc1NC(=O)c1cncc(C#N)c1` [I-96], for which the 50% degradation concentration (DC50) reads like this: under setting [1], more than 200 nM; under setting [2], more than 200 nM.
Turning to `Cn1c(=O)n(C2CCC(=O)NC2=O)c2cccc(N3CCC4(CCN(C[C@H]5CC[C@H](c6nc7cc(C(C)(C)O)c(NC(=O)c8cncc(C#N)c8)cc7s6)CC5)CC4)CC3)c21` (stereo partly shown) [I-97], the DC50 was less than 10 nM under setting [1] and more than 200 nM under setting [2].
For the compound `Cn1c(=O)n(C2CCC(=O)NC2=O)c2cccc(C#CCN3CCN(C[C@H]4CC[C@H](n5cc(NC(=O)c6cnn7ccc(N8CCOCC8)nc67)c(C(F)F)n5)CC4)CC3)c21` (stereo partly shown) [I-98], the DC50 is less than 10 nM under setting [1] and more than 200 nM under setting [2].
Consider `COc1ccn2ncc(C(=O)Nc3cn([C@H]4CC[C@H](CN5CCN(CC#Cc6cccc7c6n(C)c(=O)n7C6CCC(=O)NC6=O)CC5)CC4)nc3C(F)F)c2n1` (stereo partly shown) [I-99], for which the DC50 under setting [1] lay within 10 to 100 nM and the 50% degradation concentration (DC50) under setting [2] is more than 200 nM.
Regarding `Cn1c(=O)n(C2CCC(=O)NC2=O)c2cccc(C#CCN3CCN(C[C@H]4CC[C@H](n5cc(NC(=O)c6cnn7ccc(N8CCCCC8)nc67)c(C(F)F)n5)CC4)CC3)c21` (stereo partly shown) [I-100], the 50% degradation concentration (DC50) was 10 to 100 nM under setting [1] and more than 200 nM under setting [2].
Consider `CN(C)c1ccn2ncc(C(=O)Nc3cn([C@H]4CC[C@H](CN5CCN(CC#Cc6cccc7c6n(C)c(=O)n7C6CCC(=O)NC6=O)CC5)CC4)nc3C(F)F)c2n1` (stereo partly shown) [I-101], for which the half-maximal degradation concentration (DC50) is less than 10 nM under setting [1] and more than 200 nM under setting [2].
On to `Cc1ccn2ncc(C(=O)Nc3cn([C@H]4CC[C@H](CN5CCN(CC#Cc6cccc7c6n(C)c(=O)n7C6CCC(=O)NC6=O)CC5)CC4)nc3C(F)F)c2n1` (stereo partly shown) [I-102], for which the half-maximal degradation concentration (DC50) by setting is: under setting [1], 10 to 100 nM; under setting [2], more than 200 nM.
For `Cn1c(=O)n(C2CCC(=O)NC2=O)c2cccc(C#CCN3CCN(C[C@H]4CC[C@H](n5cc(NC(=O)c6cnn7ccc(N8CCCC8)nc67)c(C(F)F)n5)CC4)CC3)c21` (stereo partly shown) [I-103], the DC50 under setting [1] is less than 10 nM and the DC50 under setting [2] is more than 200 nM.
The like results for `CC(C)c1ccn2ncc(C(=O)Nc3cn([C@H]4CC[C@H](CN5CCN(CC#Cc6cccc7c6n(C)c(=O)n7C6CCC(=O)NC6=O)CC5)CC4)nc3C(F)F)c2n1` (stereo partly shown) [I-104] were, in that order, 10 to 100 nM and more than 200 nM.
For `Cn1c(=O)n(C2CCC(=O)NC2=O)c2cccc(C#CCN3CCN(C[C@H]4CC[C@H](n5cc(NC(=O)c6cnn7ccc(C8C[C@H]9C[C@@H]8CO9)nc67)c(C(F)F)n5)CC4)CC3)c21` (stereo partly shown) [I-105] the same measures were more than 200 nM and more than 200 nM.
For `Cn1c(=O)n(C2CCC(=O)NC2=O)c2cccc(C#CCN3CCN(C[C@H]4CC[C@H](n5cc(NC(=O)c6cnn7ccc(N8CCC8)nc67)c(C(F)F)n5)CC4)CC3)c21` (stereo partly shown) [I-106], the DC50 is less than 10 nM under setting [1] and more than 200 nM under setting [2].
`Cn1c(=O)n(C2CCC(=O)NC2=O)c2cccc(C#CCN3CCN(CC4CCC(n5cc(NC(=O)c6cnn7ccc(N8CC9CC8CO9)nc67)c(C(F)F)n5)CC4)CC3)c21` (stereo not shown) [I-108]: the 50% degradation concentration (DC50) is, setting by setting: under setting [1], more than 200 nM; under setting [2], more than 200 nM.
Take `Cn1c(=O)n(C2CCC(=O)NC2=O)c2cccc(C#CCN3CCN(C[C@H]4CC[C@H](n5cc(NC(=O)c6cnn7ccc(C8CCC8)nc67)c(C(F)F)n5)CC4)CC3)c21` (stereo partly shown) [I-109]: the DC50 is 10 to 100 nM under setting [1] and more than 200 nM under setting [2].
For `CCc1ccn2ncc(C(=O)Nc3cn([C@H]4CC[C@H](CN5CCN(CC#Cc6cccc7c6n(C)c(=O)n7C6CCC(=O)NC6=O)CC5)CC4)nc3C(F)F)c2n1` (stereo partly shown) [I-110], the DC50 is 10 to 100 nM under setting [1] and 10 to 100 nM under setting [2].
For the compound `Cn1c(=O)n(C2CCC(=O)NC2=O)c2cccc(C#CCN3CCN(C[C@H]4CC[C@H](n5cc(NC(=O)c6cnn7ccc(N8CCOC(C)(C)C8)nc67)c(C(F)F)n5)CC4)CC3)c21` (stereo partly shown) [I-111], the DC50 reads like this: under setting [1], less than 10 nM; under setting [2], more than 200 nM.
